The target of test [1] is wild-type un-phosphorylated FGFR4 (Homo sapiens, UniProt P22455). The test is described as follows: FGFR Enzymatic Assay (FRET peptide phosphorylation), FGFR4.
Test [2] addresses wild-type un-phosphorylated FGFR2 (Homo sapiens, UniProt P21802). The test is described as follows: FGFR Enzymatic Assay (FRET peptide phosphorylation), FGFR2.
Protocol: The inhibitor potency of the exemplified compounds was determined in an enzyme discontinuous assay that measures peptide phosphorylation using FRET measurements to detect product formation. Inhibitors were serially diluted in DMSO and a volume of 0.2 μL was transferred to the wells of a 384-well plate. […] Appropriate controls (enzyme blank and enzyme with no inhibitor) were included on the plate. […] The 10 μL/well reaction concentration of the peptide substrate was 500 nM whereas the ATP concentration was maintained near or below the ATP Km. The ATP Km values were pre-determined in a separate series of experiments. The reaction plate was incubated at 25° C. for 1 hr and the reactions were ended with the addition of 5 μL/well of quench solution (50 mM Tris, 150 mM NaCl, 0.5 mg/mL BSA, pH 7.8; 45 mM EDTA, 600 nM staurosporin, with Perkin Elmer Lance Reagents at 3.75 nM Eu-antibody PY20 and 180 nM APC-Streptavidin). The plate was allowed to equilibrate for ˜10 minutes at ambient temperature before scanning on a PheraStar plate reader (BMG Labtech) instrument.
Either GraphPad prism or XLfit was used to analyze the data. The IC50 values were derived by fitting the data to a four parameter logistic equation producing a sigmoidal dose-response curve with a variable Hill coefficient. Prism equation: Y=Bottom+(Top-Bottom)/(1+10^((Log IC50-X)*Hill slope)); XLfit equation: Y=(A+((B−A)/(1+((X/C)^D)))) where X is the logarithm of inhibitor concentration and Y is the response.
GraphPad prism3 was used to analyze the data. The IC50 values were derived by fitting the data to the equation for a sigmoidal dose-response with a variable slope. Y=Bottom+(Top-Bottom)/(1+10^((Log IC50-X)*Hill Slope)) where X is the logarithm of concentration and Y is the response.
The data in Table 1 was measured in wild-type un-phosphorylated FGFR1, FGFR2, FGFR3, and FGFR4 proteins.
The target of test [3] is wild-type un-phosphorylated FGFR3 (Homo sapiens, UniProt P22607). The test is described as follows: FGFR Enzymatic Assay (FRET peptide phosphorylation), FGFR3.
Chain of wild-type un-phosphorylated FGFR3 (P22607 23-806): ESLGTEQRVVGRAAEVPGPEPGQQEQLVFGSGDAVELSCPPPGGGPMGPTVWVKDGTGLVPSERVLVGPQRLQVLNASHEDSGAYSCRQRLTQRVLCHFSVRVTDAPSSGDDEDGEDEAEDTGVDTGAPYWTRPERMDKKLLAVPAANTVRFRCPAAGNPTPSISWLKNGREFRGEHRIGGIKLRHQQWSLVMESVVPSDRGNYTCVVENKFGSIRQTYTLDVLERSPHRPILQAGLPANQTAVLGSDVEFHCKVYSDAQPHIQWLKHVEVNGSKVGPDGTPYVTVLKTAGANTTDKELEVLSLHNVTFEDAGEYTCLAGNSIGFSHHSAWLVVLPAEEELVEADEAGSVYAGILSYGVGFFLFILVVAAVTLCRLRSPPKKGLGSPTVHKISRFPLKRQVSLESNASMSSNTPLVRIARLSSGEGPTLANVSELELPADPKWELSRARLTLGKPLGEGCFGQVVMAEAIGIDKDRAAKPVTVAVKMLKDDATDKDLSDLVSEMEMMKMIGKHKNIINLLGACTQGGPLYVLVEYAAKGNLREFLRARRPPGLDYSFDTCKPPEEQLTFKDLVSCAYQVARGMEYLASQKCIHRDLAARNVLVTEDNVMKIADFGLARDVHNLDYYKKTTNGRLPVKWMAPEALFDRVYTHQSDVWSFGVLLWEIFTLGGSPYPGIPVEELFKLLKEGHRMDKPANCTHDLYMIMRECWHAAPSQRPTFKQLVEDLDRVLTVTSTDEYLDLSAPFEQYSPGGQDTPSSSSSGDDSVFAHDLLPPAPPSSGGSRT
The target of test [4] is wild-type un-phosphorylated FGFR1 (Homo sapiens, UniProt P11362). The test is described as follows: FGFR Enzymatic Assay (FRET peptide phosphorylation), FGFR1. Particulars: pre-incubated for 4 hours.
Chain of wild-type un-phosphorylated FGFR1 (P11362 22-822): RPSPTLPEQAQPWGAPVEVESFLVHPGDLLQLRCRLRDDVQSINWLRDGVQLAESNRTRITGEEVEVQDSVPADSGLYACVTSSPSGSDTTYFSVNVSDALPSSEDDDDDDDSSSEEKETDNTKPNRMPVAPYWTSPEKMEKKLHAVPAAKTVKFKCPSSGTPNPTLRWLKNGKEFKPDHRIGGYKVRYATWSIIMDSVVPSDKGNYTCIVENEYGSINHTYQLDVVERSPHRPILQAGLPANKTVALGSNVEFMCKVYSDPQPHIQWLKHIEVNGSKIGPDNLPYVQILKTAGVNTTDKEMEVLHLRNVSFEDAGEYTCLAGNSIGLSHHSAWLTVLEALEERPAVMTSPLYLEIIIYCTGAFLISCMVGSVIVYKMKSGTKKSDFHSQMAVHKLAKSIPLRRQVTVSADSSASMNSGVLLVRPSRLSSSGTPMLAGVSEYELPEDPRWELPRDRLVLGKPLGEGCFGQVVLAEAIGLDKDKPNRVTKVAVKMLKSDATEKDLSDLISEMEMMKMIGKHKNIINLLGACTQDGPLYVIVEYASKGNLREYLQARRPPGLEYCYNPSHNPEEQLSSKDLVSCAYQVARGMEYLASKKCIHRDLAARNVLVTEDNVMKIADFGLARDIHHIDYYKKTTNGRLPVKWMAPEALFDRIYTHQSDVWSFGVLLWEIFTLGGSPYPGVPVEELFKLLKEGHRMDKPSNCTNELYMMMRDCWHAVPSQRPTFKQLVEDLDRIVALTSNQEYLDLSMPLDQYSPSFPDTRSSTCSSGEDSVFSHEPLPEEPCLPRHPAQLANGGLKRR
Setting [5] is: read-out: FGFR1, wild-type un-phosphorylated FGFR1.
Setting [6] is: read-out: FGFR2, wild-type un-phosphorylated FGFR2, pre-incubated for 4 hours.
The mark [7] stands for this setting: FGFR1, wild-type un-phosphorylated FGFR1.
The mark [8] stands for this setting: read-out: FGFR4, wild-type un-phosphorylated FGFR4, pre-incubated for 4 hours.

Structures are written as SMILES. Like-named read-outs stand apart in the source and are kept apart here. Bounds are passed on as bounds.

Chain of wild-type un-phosphorylated FGFR4 (P22455 22-802): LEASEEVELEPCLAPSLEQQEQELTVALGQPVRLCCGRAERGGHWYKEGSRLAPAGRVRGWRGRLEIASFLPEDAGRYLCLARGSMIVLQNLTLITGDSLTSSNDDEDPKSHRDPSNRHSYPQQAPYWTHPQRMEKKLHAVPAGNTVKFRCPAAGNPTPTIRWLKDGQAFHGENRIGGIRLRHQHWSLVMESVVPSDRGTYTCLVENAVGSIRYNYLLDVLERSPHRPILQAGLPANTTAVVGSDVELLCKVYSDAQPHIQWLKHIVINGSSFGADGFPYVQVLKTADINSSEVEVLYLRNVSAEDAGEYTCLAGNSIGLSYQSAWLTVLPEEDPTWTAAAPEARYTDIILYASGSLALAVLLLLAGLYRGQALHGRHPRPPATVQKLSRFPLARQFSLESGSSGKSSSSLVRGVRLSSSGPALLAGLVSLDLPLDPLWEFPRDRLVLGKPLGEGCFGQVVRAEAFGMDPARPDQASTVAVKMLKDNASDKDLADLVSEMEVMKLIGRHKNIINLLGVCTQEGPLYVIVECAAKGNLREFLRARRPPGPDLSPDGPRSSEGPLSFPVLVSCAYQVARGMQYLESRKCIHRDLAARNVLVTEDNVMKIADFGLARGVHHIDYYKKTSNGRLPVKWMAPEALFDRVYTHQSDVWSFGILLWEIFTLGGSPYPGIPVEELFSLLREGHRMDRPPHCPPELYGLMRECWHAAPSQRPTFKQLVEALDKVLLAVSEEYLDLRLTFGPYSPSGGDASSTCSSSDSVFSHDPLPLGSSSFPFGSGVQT
Chain of wild-type un-phosphorylated FGFR2 (P21802 22-821): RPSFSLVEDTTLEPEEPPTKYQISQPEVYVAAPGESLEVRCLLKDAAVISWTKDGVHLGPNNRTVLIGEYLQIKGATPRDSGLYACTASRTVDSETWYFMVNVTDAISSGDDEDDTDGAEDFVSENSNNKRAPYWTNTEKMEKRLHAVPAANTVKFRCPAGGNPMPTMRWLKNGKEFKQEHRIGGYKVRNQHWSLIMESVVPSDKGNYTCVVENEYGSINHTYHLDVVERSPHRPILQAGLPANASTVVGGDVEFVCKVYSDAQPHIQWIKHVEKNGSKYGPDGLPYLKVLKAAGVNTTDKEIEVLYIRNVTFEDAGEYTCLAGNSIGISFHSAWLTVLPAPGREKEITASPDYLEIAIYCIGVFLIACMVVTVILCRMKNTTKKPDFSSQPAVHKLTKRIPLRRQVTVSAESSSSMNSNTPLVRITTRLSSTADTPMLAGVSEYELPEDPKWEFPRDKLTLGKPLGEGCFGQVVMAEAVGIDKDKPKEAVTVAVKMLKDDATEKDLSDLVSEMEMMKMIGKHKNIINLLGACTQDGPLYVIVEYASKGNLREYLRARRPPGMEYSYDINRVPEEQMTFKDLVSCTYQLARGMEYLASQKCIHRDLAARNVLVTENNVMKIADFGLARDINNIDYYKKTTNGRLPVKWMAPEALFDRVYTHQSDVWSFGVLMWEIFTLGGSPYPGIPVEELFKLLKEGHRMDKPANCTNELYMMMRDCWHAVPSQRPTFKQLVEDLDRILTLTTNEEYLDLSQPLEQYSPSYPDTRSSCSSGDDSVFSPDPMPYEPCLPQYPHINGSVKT

With `COc1cc2[nH]nc(-c3cnn(C4CN(C(=O)CCN(C)C)C4)c3)c2nc1-c1cccc2c1CCC2` [Example 117, 1-(3-(4-(5-(2,3-Dihydro-1H-inden-4-yl)-6-methoxy-1H-pyrazolo[4,3-b]pyridin-3-yl)-1H-pyrazol-1-yl)azetidin-1-yl)-3-(dimethylamino)propan-1-one], the IC50 in test [1] is 40 to 100 nM; in test [2], less than 6 nM; in test [3], less than 6 nM; in test [4] (setting [5]), 6 to 40 nM.
In the case of `COc1cc2[nH]nc(-c3cnn(CCC#N)c3)c2nc1-c1cccc2c1CCC2` [Example 30, 3-(4-(5-(2,3-Dihydro-1H-inden-4-yl)-6-methoxy-1H-pyrazolo[4,3-b]pyridin-3-yl)-1H-pyrazol-1-yl)propanenitrile], the IC50 in test [1] was 40 to 100 nM; in test [2] (setting [6]) it was 6 to 40 nM; in test [3], less than 6 nM; in test [4] (setting [7]) it was more than 100 nM.
As for `COc1cc2[nH]nc(-c3ccc(C4CCN(C(=O)C5COCCN5C)C4)nc3)c2nc1-c1cccc2c1CCC2` (single isomer, unassigned) [Example 109], the IC50 in test [1] (setting [8]) was 6 to 40 nM; in test [2] it was less than 6 nM; in test [3], less than 6 nM; in test [4] (setting [5]), 6 to 40 nM.
Consider `COc1cc2[nH]nc(-c3cnn(C4CN(C(=O)C5(C#N)CC5)C4)c3)c2nc1-c1cccc2c1CCC2` [Example 149, 1-(3-(4-(5-(2,3-Dihydro-1H-inden-4-yl)-6-methoxy-1H-pyrazolo[4,3-b]pyridin-3-yl)-1H-pyrazol-1-yl)azetidine-1-carbonyl)cyclopropane-1-carbonitrile], for which the IC50 in test [1] (setting [8]) is 6 to 40 nM; in test [2] it was less than 6 nM; in test [3], less than 6 nM; in test [4] (setting [5]), 6 to 40 nM.
`COc1cc2[nH]nc(-c3ccc(C4CCN(C(C)=O)C4)nc3)c2nc1-c1cccc2c1CCC2C#N` (single isomer, unassigned) [Example 183, 4-(3-(6-(1-Acetylpyrrolidin-3-yl)pyridin-3-yl)-6-methoxy-1H-pyrazolo[4,3-b]pyridin-5-yl)-2,3-dihydro-1H-indene-1-carbonitrile]: the IC50 in test [1] (setting [8]) was 6 to 40 nM; in test [2], less than 6 nM; in test [3] it was less than 6 nM; in test [4] (setting [5]) it was 6 to 40 nM.
Take `COc1cc2[nH]nc(-c3cnn([C@@H]4CCN(C(=O)[C@@H]5COCCN5C)C4)c3)c2nc1-c1cccc2c1CCC2` [Example 137, ((R)-3-(4-(5-(2,3-Dihydro-1H-inden-4-yl)-6-methoxy-1H-pyrazolo[4,3-b]pyridin-3-yl)-1H-pyrazol-1-yl)pyrrolidin-1-yl)((S)-4-methylmorpholin-3-yl)methanone]: the IC50 in test [1] is 40 to 100 nM; in test [2], less than 6 nM; in test [3], less than 6 nM; in test [4] (setting [5]), 6 to 40 nM.
As for `COCC(=O)N1CC[C@H](n2cc(-c3n[nH]c4cc(OC)c(-c5cccc6c5CCC6C#N)nc34)cn2)C1` (single isomer, unassigned) [Example 168], the IC50 was 6 to 40 nM in test [1] (setting [8]), less than 6 nM in test [2], less than 6 nM in test [3] and 6 to 40 nM in test [4] (setting [5]).
As for `COc1cc2[nH]nc(-c3ccc(C45CC4CN(C4CCOCC4)C5)nc3)c2nc1-c1cccc2c1CCC2` (stereo not drawn) [Example 193, 5-(2,3-Dihydro-1H-inden-4-yl)-6-methoxy-3-(6-(3-(tetrahydro-2H-pyran-4-yl)-3-azabicyclo[3.1.0]hexan-1-yl)pyridin-3-yl)-1H-pyrazolo[4,3-b]pyridine], the IC50 was 6 to 40 nM in test [1] (setting [8]), less than 6 nM in test [2], less than 6 nM in test [3] and 6 to 40 nM in test [4] (setting [5]).
As to `COc1cc2[nH]nc(-c3cnn(Cc4ccccn4)c3)c2nc1-c1cccc(C)c1C` [Example 66, 5-(2,3-Dimethylphenyl)-6-methoxy-3-(1-(pyridin-2-ylmethyl)-1H-pyrazol-4-yl)-1H-pyrazolo[4,3-b]pyridine], the IC50 in test [1] is more than 100 nM; in test [2], less than 6 nM; in test [3] it was less than 6 nM; in test [4] (setting [7]) it was more than 100 nM.
With `COc1cc2[nH]nc(-c3ccc(C4CCN(C(=O)[C@@H]5CCCN5C)CC4)nc3)c2nc1-c1cccc2c1CCC2` [Example 108, 5-(2,3-Dihydro-1H-inden-4-yl)-6-methoxy-3-(6-(1-(methyl-L-prolyl)piperidin-4-yl)pyridin-3-yl)-1H-pyrazolo[4,3-b]pyridine], the IC50 in test [1] (setting [8]) is 6 to 40 nM; in test [2] it was less than 6 nM; in test [3], less than 6 nM; in test [4] (setting [5]) it was 6 to 40 nM.
With `COc1cc2[nH]nc(-c3cnn(C4CN(C(=O)[C@H]5CCOC5)C4)c3)c2nc1-c1cccc2c1CCC2` [Example 131, (S)-(3-(4-(5-(2,3-Dihydro-1H-inden-4-yl)-6-methoxy-1H-pyrazolo[4,3-b]pyridin-3-yl)-1H-pyrazol-1-yl)azetidin-1-yl)(tetrahydrofuran-3-yl)methanone], the IC50 is 6 to 40 nM in test [1] (setting [8]), less than 6 nM in test [2], less than 6 nM in test [3] and 6 to 40 nM in test [4] (setting [5]).
On to `Cc1cc2[nH]nc(-c3cnn(C)c3)c2nc1-c1cccc(C)c1C` [Example 40, 5-(2,3-Dimethylphenyl)-6-methyl-3-(1-methyl-1H-pyrazol-4-yl)-1H-pyrazolo[4,3-b]pyridine], for which the IC50 in test [1] is more than 100 nM; in test [2] (setting [6]), 6 to 40 nM; in test [3] it was less than 6 nM; in test [4] (setting [7]) it was more than 100 nM.
As for `COc1cc2[nH]nc(-c3ccc(N4CCN(C(C)=O)CC4)cc3)c2nc1-c1cccc2c1CCC2` [Example 61, 1-(4-(4-(5-(2,3-Dihydro-1H-inden-4-yl)-6-methoxy-1H-pyrazolo[4,3-b]pyridin-3-yl)phenyl)piperazin-1-yl)ethan-1-one], the IC50 in test [1] is more than 100 nM; in test [2] it was less than 6 nM; in test [3], less than 6 nM; in test [4] (setting [7]), 40 to 100 nM.
`COc1cc2[nH]nc(-c3ccc(N4CCN(C)CC4)nc3)c2nc1-c1cccc2c1CCC2C#N` (single isomer, unassigned) [Example 186, 4-(6-Methoxy-3-(6-(4-methylpiperazin-1-yl)pyridin-3-yl)-1H-pyrazolo[4,3-b]pyridin-5-yl)-2,3-dihydro-1H-indene-1-carbonitrile]: the IC50 was 6 to 40 nM in test [1] (setting [8]), less than 6 nM in test [2], less than 6 nM in test [3] and 6 to 40 nM in test [4] (setting [5]).
Consider `COc1cc2[nH]nc(-c3cnn(C4CN(C(=O)C(C)(C)N(C)C)C4)c3)c2nc1-c1cccc2c1CCC2` [Example 148, 1-(3-(4-(5-(2,3-Dihydro-1H-inden-4-yl)-6-methoxy-1H-pyrazolo[4,3-b]pyridin-3-yl)-1H-pyrazol-1-yl)azetidin-1-yl)-2-(dimethylamino)-2-methylpropan-1-one], for which the IC50 was 40 to 100 nM in test [1], less than 6 nM in test [2], less than 6 nM in test [3] and 6 to 40 nM in test [4] (setting [5]).
Regarding `COc1cc2[nH]nc(-c3cnn(CCN4CCOCC4)c3)c2nc1-c1cccc2c1CCC2` [Example 28, 4-(2-(4-(5-(2,3-Dihydro-1H-inden-4-yl)-6-methoxy-1H-pyrazolo[4,3-b]pyridin-3-yl)-1H-pyrazol-1-yl)ethyl)morpholine], the IC50 in test [1] is more than 100 nM; in test [2], less than 6 nM; in test [3] it was less than 6 nM; in test [4] (setting [7]) it was 40 to 100 nM.
For the compound `COc1cc2[nH]nc(-c3cnn(C4CN(C(=O)CO)C4)c3)c2nc1-c1cccc2c1CCC2` [Example 116, 1-(3-(4-(5-(2,3-Dihydro-1H-inden-4-yl)-6-methoxy-1H-pyrazolo[4,3-b]pyridin-3-yl)-1H-pyrazol-1-yl)azetidin-1-yl)-2-hydroxyethan-1-one], the IC50 in test [1] was 40 to 100 nM; in test [2], less than 6 nM; in test [3] it was less than 6 nM; in test [4] (setting [5]), 6 to 40 nM.
`CCNC(=O)N1CCN(c2ccc(-c3n[nH]c4cc(OC)c(-c5cccc6c5CCC6)nc34)cn2)CC1` [Example 59, 4-(5-(5-(2,3-Dihydro-1H-inden-4-yl)-6-methoxy-1H-pyrazolo[4,3-b]pyridin-3-yl)pyridin-2-yl)-N-ethylpiperazine-1-carboxamide]: the IC50 in test [1] (setting [8]) is 6 to 40 nM; in test [2] it was less than 6 nM; in test [3], less than 6 nM; in test [4] (setting [5]), 6 to 40 nM.
Turning to `COc1cc2[nH]nc(-c3ccc(C4CCN(C(=O)CO)C4)nc3)c2nc1-c1cccc2c1CCC2` (single isomer, unassigned) [Example 101, 1-(3-(5-(5-(2,3-Dihydro-1H-inden-4-yl)-6-methoxy-1H-pyrazolo[4,3-b]pyridin-3-yl)pyridin-2-yl)pyrrolidin-1-yl)-2-hydroxyethan-1-one], the IC50 was 6 to 40 nM in test [1] (setting [8]), less than 6 nM in test [2], less than 6 nM in test [3] and 6 to 40 nM in test [4] (setting [5]).
Turning to `COc1cc2[nH]nc(-c3ccc(N4CC(N(C)C(=O)CO)C4)nc3)c2nc1-c1cccc2c1CCC2` [Example 171, N-(1-(5-(5-(2,3-Dihydro-1H-inden-4-yl)-6-methoxy-1H-pyrazolo[4,3-b]pyridin-3-yl)pyridin-2-yl)azetidin-3-yl)-2-hydroxy-N-methylacetamide], the IC50 is 6 to 40 nM in test [1] (setting [8]), less than 6 nM in test [2], less than 6 nM in test [3] and 6 to 40 nM in test [4] (setting [5]).
For `CCN1CC(n2cc(-c3n[nH]c4cc(OC)c(-c5cccc6c5CCC6)nc34)cn2)C1` [Example 18, 5-(2,3-Dihydro-1H-inden-4-yl)-3-(1-(1-ethylazetidin-3-yl)-1H-pyrazol-4-yl)-6-methoxy-1H-pyrazolo[4,3-b]pyridine], the IC50 in test [1] was more than 100 nM; in test [2] it was less than 6 nM; in test [3], less than 6 nM; in test [4] (setting [7]), 40 to 100 nM.

(Values after patent publication US12083124B2 (Incyte Corporation, priority 2019, dated 2024).)
